These results are taken from ChEMBL document CHEMBL4342403, “New evolutions in the BACE1 inhibitor field from 2014 to 2018” (Bioorg Med Chem Lett, 2019).

In data set [1] the target is T1, Beta-secretase 1 (Homo sapiens, UniProt P56817). Nature of the data set: Inhibition of human BACE1 catalytic domain preincubated for 30 mins followed by QSY7-EISEVNLDAEFC-Europium-amide substrate addition and measured after […] by HTRF assay.
For data set [2], the target named is T2, Beta-secretase 2 (Homo sapiens, UniProt Q9Y5Z0).
T2 sequence (Q9Y5Z0 whole entry): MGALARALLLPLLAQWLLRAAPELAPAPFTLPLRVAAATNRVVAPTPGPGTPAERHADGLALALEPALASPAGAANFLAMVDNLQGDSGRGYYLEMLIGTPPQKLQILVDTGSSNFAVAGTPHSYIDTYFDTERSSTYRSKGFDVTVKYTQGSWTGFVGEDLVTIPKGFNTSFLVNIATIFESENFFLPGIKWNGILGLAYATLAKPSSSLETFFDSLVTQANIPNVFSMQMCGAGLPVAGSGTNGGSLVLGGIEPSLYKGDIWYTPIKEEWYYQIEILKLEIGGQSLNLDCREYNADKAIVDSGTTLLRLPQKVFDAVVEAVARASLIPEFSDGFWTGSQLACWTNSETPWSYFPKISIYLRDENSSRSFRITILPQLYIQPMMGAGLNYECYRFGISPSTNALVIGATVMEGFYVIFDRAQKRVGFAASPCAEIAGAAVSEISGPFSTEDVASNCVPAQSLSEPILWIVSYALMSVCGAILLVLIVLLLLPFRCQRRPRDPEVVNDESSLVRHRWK
Nature of the data set: Inhibition of human BACE2 preincubated for 30 mins followed by QSY7- EISEVNLDAEFC-Eu-amide substrate addition and measured after […] by HTRF assay. (In general: TR-FRET usually uses a lanthanide donor and a delayed reading to cut background.)

The target in data set [3] is T1, Beta-secretase 1. Nature of the data set: Inhibition of BACE1 in HEK293 cells harboring APP assessed as reduction in amyloidbeta 40 level incubated for 18 to 20 hrs by AlphaLISA Assay. The class given is cell-based. On the technique in general: Bead proximity is the source of the signal in Alpha formats.
In data set [4] the target is T1, Beta-secretase 1. Nature of the data set: Inhibition of BACE1 (unknown origin).
Data set [5] deals with T1, Beta-secretase 1. Nature of the data set: Inhibition of BACE1 (unknown origin) by cell-based assay.
The target in data set [6] is T2, Beta-secretase 2. Nature of the data set: Inhibition of BACE2 (unknown origin).
The target in data set [7] is T1, Beta-secretase 1. Nature of the data set: Inhibition of BACE1 in human SH-SY5Y cells expressing betaAPP assessed as reduction in amyloidbeta (1 to 40 residues) level incubated for 24 hrs by HTRF assay. The format is cell-based.
In the next data set the target is P-glycoprotein (ABCB1) (Homo sapiens, UniProt P08183). Nature of the data set: Substrate activity at p-glycoprotein (unknown origin) assessed as efflux ratio. Conditions: not told.
Data set [8] is described as follows: Dissociation constant, pKa of the compound. The format is physicochemical.
Data set [9] deals with T1, Beta-secretase 1. Nature of the data set: Inhibition of BACE1 (unknown origin) assessed as reduction in amyloidbeta 40 level after 24 hrs by cell-based sandwich ELISA.

T1 sequence (P56817 whole entry, the tested form may be a part): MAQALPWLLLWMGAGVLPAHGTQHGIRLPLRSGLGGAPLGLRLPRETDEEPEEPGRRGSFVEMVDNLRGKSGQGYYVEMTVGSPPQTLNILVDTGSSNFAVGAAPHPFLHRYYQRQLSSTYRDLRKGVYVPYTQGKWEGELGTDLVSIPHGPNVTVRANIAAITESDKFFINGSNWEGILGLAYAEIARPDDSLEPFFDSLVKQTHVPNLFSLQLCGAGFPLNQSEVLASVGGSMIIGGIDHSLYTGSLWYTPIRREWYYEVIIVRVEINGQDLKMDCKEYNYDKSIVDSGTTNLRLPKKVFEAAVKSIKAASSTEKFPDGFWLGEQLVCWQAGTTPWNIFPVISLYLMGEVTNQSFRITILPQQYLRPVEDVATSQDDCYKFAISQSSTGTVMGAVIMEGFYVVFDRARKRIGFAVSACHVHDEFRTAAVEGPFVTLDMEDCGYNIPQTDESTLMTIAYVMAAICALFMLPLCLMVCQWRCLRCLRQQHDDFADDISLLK
P-glycoprotein (ABCB1), sequence (P08183 whole entry): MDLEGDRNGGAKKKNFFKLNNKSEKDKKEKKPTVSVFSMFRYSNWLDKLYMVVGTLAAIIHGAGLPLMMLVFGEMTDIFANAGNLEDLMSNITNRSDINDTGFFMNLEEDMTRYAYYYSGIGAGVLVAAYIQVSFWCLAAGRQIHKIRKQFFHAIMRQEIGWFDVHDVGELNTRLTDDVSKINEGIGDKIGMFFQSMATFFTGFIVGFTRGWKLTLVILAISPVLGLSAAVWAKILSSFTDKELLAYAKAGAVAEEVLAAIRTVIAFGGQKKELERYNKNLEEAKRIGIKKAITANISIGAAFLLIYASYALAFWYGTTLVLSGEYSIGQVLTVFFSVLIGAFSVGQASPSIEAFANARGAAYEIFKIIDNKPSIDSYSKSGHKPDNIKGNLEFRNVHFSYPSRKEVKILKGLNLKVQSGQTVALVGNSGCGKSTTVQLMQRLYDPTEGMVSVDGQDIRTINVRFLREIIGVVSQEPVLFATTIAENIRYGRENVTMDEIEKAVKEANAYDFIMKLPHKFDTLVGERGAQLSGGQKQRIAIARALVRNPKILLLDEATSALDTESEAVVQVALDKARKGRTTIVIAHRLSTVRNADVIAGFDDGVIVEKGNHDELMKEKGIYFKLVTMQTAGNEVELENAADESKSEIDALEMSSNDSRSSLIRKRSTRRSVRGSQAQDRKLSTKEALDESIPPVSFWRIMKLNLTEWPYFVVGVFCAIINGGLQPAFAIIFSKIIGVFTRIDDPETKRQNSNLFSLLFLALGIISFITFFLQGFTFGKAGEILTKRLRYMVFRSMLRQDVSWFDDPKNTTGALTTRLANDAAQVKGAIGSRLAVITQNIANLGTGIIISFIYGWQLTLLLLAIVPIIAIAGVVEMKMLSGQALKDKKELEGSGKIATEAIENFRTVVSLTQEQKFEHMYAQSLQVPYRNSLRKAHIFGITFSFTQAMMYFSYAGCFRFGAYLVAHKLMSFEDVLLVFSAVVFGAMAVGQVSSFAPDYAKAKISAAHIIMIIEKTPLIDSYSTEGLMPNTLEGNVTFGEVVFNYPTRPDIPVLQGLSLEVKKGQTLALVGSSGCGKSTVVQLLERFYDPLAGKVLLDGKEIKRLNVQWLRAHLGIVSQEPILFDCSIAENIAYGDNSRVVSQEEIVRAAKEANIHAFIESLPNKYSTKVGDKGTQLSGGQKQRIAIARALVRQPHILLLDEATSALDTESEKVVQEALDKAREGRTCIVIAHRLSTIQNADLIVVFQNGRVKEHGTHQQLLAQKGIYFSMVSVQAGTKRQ

The Ki is the equilibrium dissociation constant of an inhibitor or competing ligand from its target. A higher Ki goes with lower affinity. With `CN=S1(=O)C[C@@](C)(c2cc(NC(=O)c3ccc(Cl)cn3)ccc2F)N=C(N)N1C` (single isomer, unassigned), the Ki turned out to be 5 nM at Beta-secretase 1 [1] and 1 nM on Beta-secretase 2 [2].
Consider `CN1C(=N)N[C@]2(C)c3cc(NC(=O)c4ccc(C#N)cn4)ccc3OCC[C@H]2S1(=O)=O` (relative stereo), for which the figures for the Ki on Beta-secretase 1 [1] and at Beta-secretase 2 [2] were 1 nM and 14 nM, respectively.
For orientation: IC50 means the concentration that gives 50% inhibition. Turning to `CC#CCOc1cnc(C2=Nc3cc([C@]4(C)C[C@@H](C(F)(F)F)OC(N)=N4)c(F)cc3CN2)cn1`, the IC50 at Beta-secretase 1 [3] is 9 nM.
With `C[C@@]1(c2cc(NC(=O)c3ccc(C#N)cc3)ccc2F)Cn2cnc(C(F)F)c2C(N)=N1`, the IC50 was 3.5 nM against Beta-secretase 1 [4], 0.95 nM on Beta-secretase 1 [5] and 15.8 nM at Beta-secretase 2 [6].
`CC1(c2cc(NC(=O)c3ccc(C#N)cn3)ccc2F)Cc2ncc(F)cc2C(N)=N1` (stereo unspecified): at Beta-secretase 1 [7], the IC50 was 2 nM.
Broadly, the efflux ratio is the permeability from basolateral to apical divided by that in the opposite direction, in the common usage. As to `CC(F)(F)[C@@H]1C[C@@](C)(c2cc(NC(=O)c3ccc(OCF)cn3)ccc2F)N=C(N)S1`, the IC50 at Beta-secretase 1 [4] was 6.13 nM; at Beta-secretase 2 [6], 0.5 nM. Moreover, the efflux ratio at P-glycoprotein (ABCB1) came out at 1.6.
Turning to `CN1C(=N)N[C@]2(C)c3cc(NC(=O)c4ccc(C#N)cn4)ccc3OCC[C@@H]2S1(=O)=O` (relative stereo), the Ki on Beta-secretase 1 [1] was 47 nM; at Beta-secretase 2 [2], 303 nM.
Take `C[C@@]1(c2cc(-c3cc(-c4cnc(C#N)cn4)no3)ccc2F)C[C@@H](C(F)(F)F)OC(N)=N1`: the IC50 at Beta-secretase 1 [3] was 30 nM.
Regarding `CN1CC2(C1)C(=N)N[C@](C)(c1cc(NC(=O)c3ccc(Cl)cn3)ccc1F)CS2(=O)=O`, the values for the Ki at Beta-secretase 1 [1] and on Beta-secretase 2 [2] were 6.1 nM and 1.2 nM, respectively.
Turning to `C[C@@]1(c2nc(NC(=O)c3ccc(C#N)cn3)ccc2F)CS2(=O)=NCCCCN2C(N)=N1` (stereo partly specified), the IC50 at Beta-secretase 1 [3] is 49 nM.
For `CN1C[C@@H](c2cc(NC(=O)c3ccc(C#N)cn3)ccc2F)N=C(N)C(C)(C)S1(=O)=O`, the Ki on Beta-secretase 1 [1] came out at 22 nM; at Beta-secretase 2 [2], 32 nM.
For orientation: pKa means the pH at which an ionisable group is half protonated. With `NC1=N[C@@]2(c3cc(CNCC(F)(F)F)c(F)cc3F)CO[C@@H](CF)C[C@H]2CS1`, the pKa in [8] was 7.9.
As for `CN=[S@@]1(=O)C[C@@](C)(c2cc(NC(=O)c3ccc(Cl)cn3)ccc2F)N=C(N)C1(C)C`, the Ki on Beta-secretase 1 [1] is 3 nM; on Beta-secretase 2 [2], 1 nM.
On to `C[C@]1(c2cc(NC(=O)c3ccc(C#N)cn3)ccc2F)N=C(N)O[C@H]2[C@@H]1OCC2(F)F`, for which the IC50 at Beta-secretase 1 [7] amounted to 0.391 nM.
`C[C@@]1(c2cc(NC(=O)c3ccc(OCF)cn3)ccc2F)C[C@@H](C(F)(F)F)SC(N)=N1`: the results for the IC50 against Beta-secretase 1 [4] and against Beta-secretase 2 [6] were 5.67 nM and 1 nM, respectively. In addition, the efflux ratio on P-glycoprotein (ABCB1) came to 0.7.
With `Cc1cc(C#N)cnc1C(=O)Nc1ccc(F)c([C@]2(C)CS(=O)(=NCC(F)(F)F)N(C)C(N)=N2)c1` (single isomer, unassigned), the IC50 on Beta-secretase 1 [3] was found to be 0.99 nM.
As to `N#Cc1ccc(C(=O)Nc2ccc(F)c([C@]34COC[C@H]3n3cccc3C(N)=N4)c2)nc1`, the IC50 is 26.3 nM on Beta-secretase 1 [4], 15.5 nM at Beta-secretase 1 [5] and 120 nM on Beta-secretase 2 [6].
With `C[C@]1(c2cc(NC(=O)c3ccc(C#N)cn3)ccc2F)N=C(N)OCC12CC(F)(F)C2`, the IC50 on Beta-secretase 1 [7] worked out at 0.615 nM.
For the molecule `Cn1cc2n(c1=O)C[C@@](C)(c1cc(NC(=O)c3ccc(C#N)cn3)ccc1F)N=C2N`, the IC50 against Beta-secretase 1 [4] worked out at 3.9 nM; at Beta-secretase 1 [5], 13.2 nM.
As to `C#CCOc1cnc(C(=O)Nc2cc(F)c(F)c([C@@]3(CF)N=C(N)S[C@H]4C[C@H]43)c2)cn1`, the IC50 at Beta-secretase 1 [9] worked out at 0.64 nM.
With `Cc1cc(C#N)cnc1C(=O)Nc1ccc(F)c([C@]2(C)CS3(=O)=NCCCCN3C(N)=N2)c1` (stereo partly specified), the IC50 on Beta-secretase 1 [3] was 2 nM.
Consider `CN1C(N)=N[C@](C)(c2cc(NC(=S)c3ccc(C#N)cn3)ccc2F)CS1(=O)=O`, for which the values for the Ki on Beta-secretase 1 [1] and at Beta-secretase 2 [2] were 9.1 nM and 1 nM, respectively.
In the case of `CN=S1(=O)C[C@@](C)(c2cc(-c3cc(-c4ncc(OC)cn4)no3)ccc2F)N=C(N)N1C` (single isomer, unassigned), the IC50 at Beta-secretase 1 [3] stood at 22 nM.
The same measure, in the same setting: the value for `C[C@@]1(c2nc(NC(=O)c3ccc(C#N)cn3)ccc2F)C[C@@H](C(F)(F)F)OC(N)=N1` was 3.4 nM.
Consider `COC[C@H]1SC(N)=N[C@](C)(c2cc(NC(=O)c3ccc(C#N)cn3)ccc2F)[C@H]1F`, for which the IC50 at Beta-secretase 1 [7] came to 1 nM.
